According to US6451571B1, “Thymidine kinase mutants” (University of Washington, priority 1994, dated 2002):

Tests used:
[1] = Time course analysis of thymidine phosphorylation by cell-free translation products; type: biochemical; details: for TK activity (thymidine phosphorylation) in time course compared to wild-type TK: cell-free translation products, 30° C., adjusted to protein synthesis levels; for classification on the basis of TK activities: high-activity or low-activity subset
Experimental: The transcripts described above were then used in a rabbit reticulocyte lysate cell-free translation system to synthesize active enzymes. Cell-free translation was according to Promega using nuclease-treated rabbit reticulocyte lysates.
For the high-activity mutant enzymes, unlabeled translation products were diluted 1/9 and incubated for 0, 5, 10, 20, or 30 minutes at 30° C. The TK activity results (counts per minute) were adjusted to reflect equivalent protein synthesis levels using the corresponding TCA-precipitable counts (^35S cpm).
The low-activity mutants were diluted 1/5, and the rate of phosphorylation as a function of time was also determined.

[2] = type: biochemical; details: for thermal stability compared to HSVTKII after 42° C. preincubation: cell-free translation products
Experimental: To substantiate this observation, cell-free translation products were incubated at 42° C. for increasing times prior to being assayed for enzyme activity. Briefly, cell free translation (“CFT”) products of each high-activity mutant, -RNA, and HSVTKII samples were diluted 1/9 and incubated for 0, 5, 10, and 20 minutes at 42° C. The preincubated samples were then assayed for 5 minutes (P155A/F161V and F161I) or 20 minutes (-RNA, HSVTKII, F161C, and D162E). The percent of activity remaining was determined with the untreated samples set at 100%. […] Because F161C lost greater than 90% of enzyme activity within the first 20 minutes at 42° C., shorter incubation periods at 42° C. were performed (0, 5, 10, and 20 minutes).
Low-activity mutant CFT products were diluted 1/5 and incubated for 0, 20, 40, or 60 minutes at 42° C. The preincubated samples were then assayed in triplicate for the thymidine phosphorylation for 60 minutes. The percent of activity remaining was determined using the untreated (time 0) sample as 100%.

[3] = Substrate specificity assay, ACV; type: biochemical; details: cell-free translation products, 2 hours at 30° C.
Experimental: (§1) Three of the mutants (P155A/F161V, F161I and F161C) were assayed in triplicate for the relative levels of phosphorylation using thymidine, deoxycytidine, ACV, GCV, or AZT as substrates. Briefly, forty-eight […] of each tritiated substrate was used in each assay reaction. Translation products were diluted for each nucleoside assay as follows (translation/H2O). 1/100, thymidine; 2/3, deoxycytidine, GCV, and AZT; 4/1, ACV. Each set of assays was incubated for 2 hours at 30° C. and the amount of phosphorylated product determined.

[4] = Substrate specificity assay, deoxycytidine; type: biochemical; details: cell-free translation products, 2 hours at 30° C.
Experimental: as §1

[5] = tested on: E. coli KY895; experiment: Secondary screen: colony formation on acyclovir, AZT, LB and TK selection plates; type: cell-based; set-up: key to ACV / AZT / LB / 37° C. / 42° C.: ++: the same number of colonies were observed as compared to control plates; +: fewer (<20% those observed with pMCC) and generally smaller (˜50% smaller diameter) colonies were observed as compared to control plates; −: no colonies were observed; details: for utilization of nucleoside analogues over thymidine in comparison to the wild-type: ACV and AZT plates; for AZT: colonies on AZT plates: 1 μg/mL thymidine + 0.05 μg/mL AZT; for AZT / ACV: 37° C.; for LB: colonies on LB+carb50 plates; for 37° C.: colonies on TK selection plates at 37° C.; for 42° C.: colonies on TK selection plates at 42° C.; for ACV: colonies on acyclovir plates: 1 μg/mL thymidine + 1 μg/mL acyclovir
Experimental: The ability of pMCC (KY895) and 35 log-phase mutant pMDC (KY895) cultures to produce colonies on acyclovir (“ACV”) or AZT plates was determined in a secondary screen as described below. Briefly, log-phase cultures of TK positive clones were serially diluted in 0.9% NaCl and spread onto acyclovir or AZT plates (TK selection plates except 1 μ/mL thymidine+1 μg/mL acyclovir or 0.05 μg/mL AZT). Mutant cultures were also spread onto duplicate TK selection and LB+carb^50 plates. One set of TK selection plates and LB+carb^50 plates were incubated at 42° C. All other plates were incubated at 37° C. After 16-24 hours the plates were scored.
Briefly, only mutants that gave results which differed from those observed with the wild-type pMCC (KY895) are shown.

[6] = Substrate specificity assay, thymidine; type: biochemical; details: cell-free translation products, 2 hours at 30° C.
Experimental: as §1

Row | Substance | TK activity (thymidine phosphorylation) in time course compared to wild-type TK [1] | classification on the basis of TK activities [1] | thermal stability compared to HSVTKII after 42° C. preincubation [2] | phosphorylation of ACV over HSVTKII [3] [fold] | activity loss after only 5 minutes at 42° C. ([2]; cell-free translation product) [%] | loss of enzyme activity within the first 20 minutes at 42° C. ([2]; cell-free translation product) | phosphorylation of deoxycytidine over the wild-type enzyme [4] [fold] | utilization of nucleoside analogues over thymidine in comparison to the wild-type [5] | AZT [5] | LB [5] | 37° C. [5] | 42° C. [5] | ACV [5] | phosphorylation of thymidine relative to HSVTKII [6] [fold] | ability to form colonies on TK selection plates at 42° C. [5]
1 | D162E | no difference in activities when compared to the wild-type TK | high-activity |  |  |  |  |  |  |  |  |  |  |  |  | 
2 | D162G |  | low-activity | equivalent to HSVTKII |  |  |  |  |  |  |  |  |  |  |  | 
3 | F161C | no difference in activities when compared to the wild-type TK | high-activity | exceptionally thermolabile | 2 | ~85 | greater than 90% | 2.8 | preferentially utilize one or both nucleoside analogues over thymidine | − | ++ | ++ | ++ | + (fewer (<20% those observed with pMCC) and generally smaller (˜50% smaller diameter) colonies were observed as compared to control plates) |  | 
4 | F161I | statistically higher affinity for thymidine than the wild-type TK | high-activity |  |  |  |  | 1.9 | preferentially utilize one or both nucleoside analogues over thymidine | + (fewer (<20% those observed with pMCC) and generally smaller (˜50% smaller diameter) colonies were observed as compared to control plates) | ++ | ++ | ++ | + (fewer (<20% those observed with pMCC) and generally smaller (˜50% smaller diameter) colonies were observed as compared to control plates) | 2.2 | 
5 | F161I/R163H |  | low-activity | equivalent to HSVTKII |  |  |  |  |  | ++ | ++ | ++ | + (fewer (<20% those observed with pMCC) and generally smaller (˜50% smaller diameter) colonies were observed as compared to control plates) | ++ |  | severely reduced ability to form colonies
6 | F161L | moderate ability to phosphorylate thymidine, albeit at a much reduced rate from HSVTKII | low-activity | more thermolabile that HSVTKII |  |  |  |  |  | ++ | ++ | ++ | − | ++ |  | unable to form colonies
7 | P155A/F161V | statistically higher affinity for thymidine than the wild-type TK | high-activity |  | 2.4 |  |  | 2.8 | preferentially utilize one or both nucleoside analogues over thymidine | + (fewer (<20% those observed with pMCC) and generally smaller (˜50% smaller diameter) colonies were observed as compared to control plates) | ++ | ++ | ++ | ++ | 2.6 | 
8 | R163P/H164Q |  | low-activity | equivalent to HSVTKII |  |  |  |  | preferentially utilize one or both nucleoside analogues over thymidine | + (fewer (<20% those observed with pMCC) and generally smaller (˜50% smaller diameter) colonies were observed as compared to control plates) | ++ | ++ | − | + (fewer (<20% those observed with pMCC) and generally smaller (˜50% smaller diameter) colonies were observed as compared to control plates) |  | unable to form colonies
